Results on 4 molecules are retold here after patent US12714707B2, “Combination cancer therapy using CHK inhibitor” (SHANGHAI HUAYU BIOTECHNOLOGY CO., LTD., priority 2020, dated 2026).

What all share (assay type): cell-based
Test [1] deals with MCF7F cells (fulvestrant-resistant). Put plainly: MTT cell viability / cell death rate, MCF7F cells (Example 1). The settings on record: 48 hours; for Cell Death Rate/% mean: mean of triplicate; for Cell Death Rate/% 1: replicate 1; for Cell Death Rate/% 2: replicate 2; for Cell Death Rate/% 3: replicate 3. The protocol:
MCF7F cells (fulvestrant-resistant) were maintained at 37° C. in 5% CO2 in RPMI 1640 medium (10-040-CV, Coming cellgro) supplemented with 10% FBS (10270-106, GIBCO), 1% penicillin and 1% streptomycin, and used before the 10th subculture, wherein these cells were in house prepared by culturing MCF7 cells (TCHu 74, National Collection of Authenticated Cell Cultures) in medium containing 1 μM fulvestrant for approximately 18 months (Hong Liu et al., Cooperative effect of gefitinib and fumitremorgin c on cell growth and chemosensitivity in estrogen receptor alpha negative fulvestrant-resistant MCF-7 cells. Int J Oncol. 2006. 29(5):1237-1246).
Briefly, the MCF7F cells were cultured at 37° C. in 5% CO2 in RPMI 1640 medium supplemented with i) 10% FBS, ii) 1% penicillin and 1% streptomycin, and iii) AZD2281 (final concentration at 800 nM), ABT888 (final concentration at 800 nM), Compound 605B (final concentration at 25 nM), 605B+AZD2281 (final concentration at 25 nM and 800 nM), 605B+ABT888 (final concentration at 25 nM and 800 nM), or PBS (vehicle), for 48 hours. Then, cell viability was determined by a MTT assay. The test was done in triplicate.
(§1) Cell death rate was calculated by the following formula. Cell death rate=[1−(ODtest[…])]×100%
(§2) Cell death rates were analyzed using student's t-test, and group differences were deemed statistically significant when the p-value was lower than 0.05. Zheng-Jun Jin's Q value was calculated using the formula Q=EA+B/(EA+EB−EA×EB) to assess the combined effect of Compound 605B and the PARP inhibitor, wherein EA+B, EA, and EB referred to the cell death rates caused by the combined treatment, 605B treatment and PARP inhibitor treatment, respectively. A Q value higher than 1.15 meant a synergistic […] effect.

For test [2], the system named is BT474. Description: MTT cell death rate, BT474 cells, 605B with AZD2281 (Example 2). The settings on record: 48 hours; for Cell Death Rate/% 1: replicate 1; for Cell Death Rate/% 2: replicate 2; for Cell Death Rate/% 3: replicate 3. The protocol:
as §1, §2
(§3) The combined use of Compound 605 and AZD2281 was further tested in other breast cancer cell lines, including BT474 (TCHu 143, National collection of Authenticated Cell Cultures), MCF7 (TCHu 74, National collection of Authenticated Cell Cultures), and MMTV-HER2 (a gift from Dr. Liguang-L, Shanghai Institute of Materia Medica, Chinese Academy of Sciences).
(§4) Briefly, these cells were cultured at 37° C. in 5% CO2 in RPMI 1640 medium supplemented with i) 10% FBS, ii) 1% penicillin and streptomycin, and iii) AZD2281 (final concentration at 800 nM), Compound 605B (final concentration at 25 nM), 605B+AZD2281 (final concentration at 25 nM and 800 nM), or PBS, for 48 hours. Then, cell viability was determined by a MTT assay. The test was done in triplicate.

The subject of test [3] is MCF7. Put plainly: MTT cell death rate, MCF7 cells, 605B with AZD2281 (Example 2). The settings on record: 48 hours; for Cell Death Rate/% 1: replicate 1; for Cell Death Rate/% 2: replicate 2; for Cell Death Rate/% 3: replicate 3. The protocol:
as §1, §2, §3, §4

For test [4], the system named is MMTV-HER2. Put plainly: MTT cell death rate, MMTV-HER2 cells, 605B with AZD2281 (Example 2). The settings on record: 48 hours; for Cell Death Rate/% 1: replicate 1; for Cell Death Rate/% 2: replicate 2; for Cell Death Rate/% 3: replicate 3. Here is the method: as §1, §2, §3, §4
Test [5] deals with BT474. Put plainly: MTT cell death rate, BT474 cells, 605B with Rucaparib (Example 3). To be noted: 48 hours; for Cell Death Rate/% 1: replicate 1; for Cell Death Rate/% 2: replicate 2; for Cell Death Rate/% 3: replicate 3. Here is the method:
as §1, §2
(§5) Compound 605B was tested with another PARP inhibitor, AG014699 (Rucaparib), for the inhibitory effects on breast tumor cell lines, including BT474, MCF7, and MMTV-HER2.
(§6) Briefly, these cells were cultured at 37° C. in 5% CO2 in RPMI 1640 medium supplemented with i) 10% FBS, ii) 1% penicillin and 1% streptomycin, and iii) AZD2281 (final concentration at 800 nM), Compound 605B (final concentration at 25 nM), 605B+AZD2281 (final concentration at 25 nM and 800 nM), or PBS, for 48 hours. Then, cell viability was determined by the MTT assay. The test was done in triplicate.

The subject of test [6] is MCF7. Description: MTT cell death rate, MCF7 cells, 605B with Rucaparib (Example 3). To be noted: 48 hours; for Cell Death Rate/% 1: replicate 1; for Cell Death Rate/% 2: replicate 2; for Cell Death Rate/% 3: replicate 3. The protocol: as §1, §2, §5, §6
The test system of test [7] is MMTV-HER2. Description: MTT cell death rate, MMTV-HER2 cells, 605B with Rucaparib (Example 3). To be noted: 48 hours; for Cell Death Rate/% 1: replicate 1; for Cell Death Rate/% 2: replicate 2; for Cell Death Rate/% 3: replicate 3. The protocol:
as §1, §2, §5, §6

Turning to `C[C@]1(c2nc3c(C(N)=O)cccc3[nH]2)CCCN1` [ABT888, Veliparib], in test [1] (final concentration 800 nM), the “Cell Death Rate/% mean” value was 4.63%, the “Cell Death Rate/% 1” value is listed as 4.69%, the “Cell Death Rate/% 2” value came out at 4.28% and the “Cell Death Rate/% 3” value was 4.93%.

In the case of `O=C(c1cc(Cc2n[nH]c(=O)c3ccccc23)ccc1F)N1CCN(C(=O)C2CC2)CC1` [AZD2281, Olaparib], in test [1] (final concentration 800 nM), the “Cell Death Rate/% mean” value is 5.55%, the “Cell Death Rate/% 1” value is given as 5.86%, the “Cell Death Rate/% 2” value is recorded as 5.42% and the “Cell Death Rate/% 3” value came out at 5.37%. In addition, in the test with BT474 [2] (final concentration 800 nM), the “Cell Death Rate/% mean” value turned out to be 5.28%, the “Cell Death Rate/% 1” value was determined as 5.47%, the “Cell Death Rate/% 2” value is 5.1% and the “Cell Death Rate/% 3” value is recorded as 5.27%. Further, in the test on MCF7 [3] (final concentration 800 nM), the “Cell Death Rate/% mean” value is listed as 5.34%, the “Cell Death Rate/% 1” value is recorded as 5.34%, the “Cell Death Rate/% 2” value is listed as 5.39% and the “Cell Death Rate/% 3” value is 5.66%. In the test on MMTV-HER2 [4] (final concentration 800 nM), the “Cell Death Rate/% mean” value came out at 8.28%, the “Cell Death Rate/% 1” value was determined as 8.34%, the “Cell Death Rate/% 2” value is 8.46% and the “Cell Death Rate/% 3” value was determined as 8.05%.

For `NC(=O)c1nnc(N[C@H]2CCCNC2)c2cc(-c3cccc(F)c3)sc12` [Compound 605B, 2-(3-fluorophenyl)-4-(3-piperidineamino)-thieno[2,3-d]pyridazine-7-carboxylic acid amide], the “inhibitory effects on cells / cell death rates (in words)” value in test [1] was “little inhibitory effects”. The “Cell Death Rate/% mean” value in test [1] (final concentration 25 nM) was 4.97%; in the test on BT474 [2] (final concentration 25 nM) it was 7.67%; with MCF7 [3] (final concentration 25 nM) it was 6.51%; with MMTV-HER2 [4] (final concentration 25 nM), 8.50%; in the test with BT474 [5] (final concentration 25 nM), 8.47%; in the test on MCF7 [6] (final concentration 25 nM) it was 8.41%. In addition, the “Cell Death Rate/% mean” value in the test on MMTV-HER2 [7] (final concentration 25 nM) is 9.11%. Besides, the “Cell Death Rate/% 1” value in test [1] (final concentration 25 nM) was found to be 5.03%; with BT474 [2] (final concentration 25 nM), 7.72%; with MCF7 [3] (final concentration 25 nM) it was 6.51%; in the test with MMTV-HER2 [4] (final concentration 25 nM) it was 8.69%; with BT474 [5] (final concentration 25 nM), 8.49%; with MCF7 [6] (final concentration 25 nM), 8.5%. Further, the “Cell Death Rate/% 1” value with MMTV-HER2 [7] (final concentration 25 nM) stood at 9.13%. Also, the “Cell Death Rate/% 2” value in test [1] (final concentration 25 nM) is 5.22%; in the test on BT474 [2] (final concentration 25 nM) it was 7.45%; with MCF7 [3] (final concentration 25 nM), 6.38%; in the test on MMTV-HER2 [4] (final concentration 25 nM), 8.33%; with BT474 [5] (final concentration 25 nM) it was 8.24%; in the test on MCF7 [6] (final concentration 25 nM) it was 8.39%. Besides, in the test on MMTV-HER2 [7] (final concentration 25 nM), the “Cell Death Rate/% 2” value was found to be 8.90%. Also, the “Cell Death Rate/% 3” value was 4.67% in test [1] (final concentration 25 nM); 7.83% with BT474 [2] (final concentration 25 nM); 6.72% in the test with MCF7 [3] (final concentration 25 nM); 8.47% with MMTV-HER2 [4] (final concentration 25 nM); 8.67% in the test with BT474 [5] (final concentration 25 nM); 8.33% with MCF7 [6] (final concentration 25 nM). The “Cell Death Rate/% 3” value with MMTV-HER2 [7] (final concentration 25 nM) is recorded as 9.29%.

Consider `CNCc1ccc(-c2[nH]c3cc(F)cc4c3c2CCNC4=O)cc1` [Rucaparib], for which, in the test on BT474 [5] (final concentration 800 nM), the “Cell Death Rate/% mean” value amounted to 7.60%, the “Cell Death Rate/% 1” value was found to be 7.63%, the “Cell Death Rate/% 2” value is 7.77% and the “Cell Death Rate/% 3” value is recorded as 7.39%. In the test with MCF7 [6] (final concentration 800 nM), the “Cell Death Rate/% mean” value was found to be 6.66%, the “Cell Death Rate/% 1” value stood at 6.88%, the “Cell Death Rate/% 2” value turned out to be 6.46% and the “Cell Death Rate/% 3” value was found to be 6.65%. For the same molecule, in the test with MMTV-HER2 [7] (final concentration 800 nM), the “Cell Death Rate/% mean” value is 7.50%, the “Cell Death Rate/% 1” value is 7.54%, the “Cell Death Rate/% 2” value amounted to 7.68% and the “Cell Death Rate/% 3” value is recorded as 7.29%.
